Data reported in US7002010B2, “Process for the preparation of morpholinones as light stabilizers” (Ciba Specialty Chemicals Corporation, priority 2000, dated 2006).

## CC(N)(CO)COC(C)(C)C (stereo not shown) [Compound 301, 2-amino-3-tert-butoxy-2-methyl-propan-1-ol]
  melting point: 30 to 35 °C
